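All cell lines were grown in 96-well plates and treated with compound for 48 hours. Abbreviation: GI50, concentration required for 50% inhibition of growth.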 Active and inactive are the calls of the source. No stated cut-off is given here; in the data, active = GI50 up to about 1.1 µM and inactive = higher.
Columns and labels:
Experiment in all cases: inhibition of tumour cell growth, NCI panel, 48 h
786-0 = system: 786-0
A498 = system: A498
A549 = system: A549
ACHN = system: ACHN
CAKI-1 = system: CAKI-1
CCRF-CEM = system: CCRF-CEM
COLO 205 = system: COLO 205
DLD-1 = system: DLD-1
DMS-114 = system: DMS-114
EKVX = system: EKVX
HCC 2998 = system: HCC 2998
HCT-116 = system: HCT-116
HCT-15 = system: HCT-15
HL-60 = system: HL-60
HOP-18 = system: HOP-18
HOP-62 = system: HOP-62
HOP-92 = system: HOP-92
HT-29 = system: HT-29
IGROV-1 = system: IGROV-1
K562 = system: K562
KM12 = system: KM12
LOX IMVI = system: LOX IMVI
LXFL 529 = system: LXFL 529
M14 = system: M14
M19-MEL = system: M19-MEL
MOLT-4 = system: MOLT-4
Malme-3M = system: Malme-3M
NCI-H226 = system: NCI-H226
NCI-H23 = system: NCI-H23
NCI-H460 = system: NCI-H460
NCI-H522 = system: NCI-H522
OVCAR-4 = system: OVCAR-4
OVCAR-5 = system: OVCAR-5
OVCAR-8 = system: OVCAR-8
RPMI-8226 = system: RPMI-8226
RXF 631 = system: RXF 631
SF-268 = system: SF-268
SF-295 = system: SF-295
SF-539 = system: SF-539
SK-MEL-28 = system: SK-MEL-28
SK-MEL-2 = system: SK-MEL-2
SK-MEL-5 = system: SK-MEL-5
SK-OV-3 = system: SK-OV-3
SN12C = system: SN12C
SNB-75 = system: SNB-75
SNB-78 = system: SNB-78
SR = system: SR
SW-620 = system: SW-620
TK-10 = system: TK-10
U-251 = system: U-251
UACC-257 = system: UACC-257
UACC-62 = system: UACC-62
UO-31 = system: UO-31

O=C(/C(=C/c1ccc(O)cc1)c1ccccc1)c1ccccc1
GI50 (786-0): 18.5 µM (inactive) | GI50 (A498): 17.9 µM (inactive) | GI50 (A549): 18 µM (inactive) | GI50 (ACHN): 16.1 µM (inactive) | GI50 (CAKI-1): 19.1 µM (inactive) | GI50 (CCRF-CEM): 20 µM (inactive) | GI50 (COLO 205): 17.5 µM (inactive) | GI50 (DLD-1): 15.9 µM (inactive) | GI50 (DMS-114): 11.5 µM (inactive) | GI50 (EKVX): 20 µM (inactive) | GI50 (HCC 2998): 17.4 µM (inactive) | GI50 (HCT-116): 16.7 µM (inactive) | GI50 (HCT-15): 18 µM | GI50 (HL-60): 13.6 µM (inactive) | GI50 (HOP-18): 18.8 µM (inactive) | GI50 (HOP-62): 19.3 µM (inactive) | GI50 (HOP-92): 5.65 µM (inactive) | GI50 (HT-29): 18.1 µM (inactive) | GI50 (IGROV-1): 18.7 µM (inactive) | GI50 (K562): 17.8 µM (inactive) | GI50 (KM12): 15.7 µM (inactive) | GI50 (LOX IMVI): 13.2 µM (inactive) | GI50 (LXFL 529): 16.4 µM (inactive) | GI50 (M14): 17.1 µM (inactive) | GI50 (M19-MEL): 18.4 µM (inactive) | GI50 (MOLT-4): 15.4 µM (inactive) | GI50 (Malme-3M): 19 µM (inactive) | GI50 (NCI-H226): 16.7 µM (inactive) | GI50 (NCI-H23): 15 µM (inactive) | GI50 (NCI-H460): 18.7 µM (inactive) | GI50 (NCI-H522): 15.2 µM (inactive) | GI50 (OVCAR-4): 21.9 µM (inactive) | GI50 (OVCAR-5): 17 µM (inactive) | GI50 (OVCAR-8): 27 µM (inactive) | GI50 (RPMI-8226): 17.3 µM (inactive) | GI50 (RXF 631): 15.3 µM (inactive) | GI50 (SF-268): 17.3 µM (inactive) | GI50 (SF-295): 16.1 µM (inactive) | GI50 (SF-539): 16.6 µM (inactive) | GI50 (SK-MEL-28): 17.9 µM (inactive) | GI50 (SK-MEL-2): 11.6 µM (inactive) | GI50 (SK-MEL-5): 15 µM (inactive) | GI50 (SK-OV-3): 20.8 µM (inactive) | GI50 (SN12C): 18.4 µM (inactive) | GI50 (SNB-75): 16.7 µM (inactive) | GI50 (SNB-78): 24 µM (inactive) | GI50 (SR): 23.8 µM (inactive) | GI50 (SW-620): 18 µM (inactive) | GI50 (TK-10): 16.2 µM (inactive) | GI50 (U-251): 16.2 µM (inactive) | GI50 (UACC-257): 18 µM (inactive) | GI50 (UACC-62): 14.1 µM (inactive) | GI50 (UO-31): 15.4 µM (inactive)
